# Assay results taken from patent US8889902B2, “Acetylsalicylic acid salts” (priority 2009, dated 2014).
# Marks after values point to notes of the source that are not given here.
# Columns and labels:
# rat ear skin temperature = experiment: Ear skin temperature rise caused by NA, s.c. administration; format: in vivo, Wistar rats
# Method: Male Wistar rats (280-330 g) were used. Animals were held in groups of 6 in climatized rooms at 22±1° C., relative humidity 60±5%, and 12/12-hour light/dark cycle with free access to drinking water and feed (R3—Lactamin AB, Sweden). For registration of changes in skin temperature of intact rats contactless temperature recording method was used (Papaliodis D et al, Br J Pharmacol 2008; 153:1382-1387). Temperature measurements were performed with a hand-held infrared thermometer (Model Proscan 510, TFA-Dostman). Animals were habituated to handling and to the infrared probe for 3 days before use. Temperature readings from the dorsal side of each ear were recorded without anaesthesia at beginning and during experiment. The ear temperature was measured every 5 min. for a period of up to 60 min. The animals were returned to their cages between measurements. NA, MD and MASA were dissolved in saline and pH was corrected immediately before usage. LA (MK 0524, Cayman Chemicals) was first dissolved in DMSO and then freshly diluted with 0.9% NaCl, on each day of the experiment. The rate of NA and LA combination was based on Summary of Product Characteristics for Tredaptive™ (nicotinic acid/laropiprant) 1000 mg/20 mg modified-release tablets.
# The influence of LA, MD or MASA alone on skin temperature was checked. Each investigated compound was introduced s.c. simultaneously with NA as LA+NA [0] or 30 min in advance to NA as LA+NA [30].
# [1] = tested on: serum lipid levels (C, HDL, LDL, TG); experiment: Acute hyperlipidemia model (Triton WR1339); format: in vivo, Wistar rats; conditions: serum 24 h
# Method: Male Wistar rats with body mass of 250-270 g were used. Animals were held in groups of 6-8 in climatized rooms at 22±1° C., relative humidity 60±5%, and 12/12-hour light/dark cycle with free access to water and feed. […] The solution of test substances or water was introduced to control and TR group animals p.o. one hour before and 20 hours after the introduction of TR as described below.
# Blood for biochemical analysis was collected on the next day (24 hours after the injection of TR) by heart punction under ether narcosis. Serum was separated by centrifugation and analyzed for total cholesterol, HDL, LDL and TG levels by commercial kits.
# [2] = tested on: response to thermal irritation (hot plate); experiment: Mouse hot plate test; format: in vivo, mice
# carrageneen paw oedema = experiment: Carrageneen oedema, preventive mode; format: in vivo, rats; conditions: preventive 6 times, 4 h
# Method: The […] oedema was investigated by established method ([…], Patol Fiziol Eksp Ter, 2002(2):24-7 (Rus) on 42 rats with body mass of 178-220 g: […] The prevention index was calculated as indicated in previous section.
# [3] = tested on: abdominal constrictions in writhing test model; experiment: Mouse writhing test (acetic acid i.p.); format: in vivo, mice; conditions: for No. of constrictions: 10 min observation
# Method: In investigating the analgesic, anti-inflammatory and antipyretic effects of MASA methods widely used in evaluation of NSAIDs were employed. Mongrel white laboratory mice and Wistar rats were used in experiments. Animals were kept in groups of 7-8 in adequate cages in climatized rooms at 22±1° C., relative humidity 60±5% and 12/12-hour light/darkness cycle with free access to feed and water.
# Aqueous solutions of test substances were prepared ex tempore. In each experimental series a control group was used that received an identical volume of water p.o.
# Nociceptive reaction was evaluated by chemical irritation method—writhing test (Charaborty A et al, Indian J of Pharmacology 2004; 36(3):148-150). Animals received i.p. 0.25 ml of 0.75% aqueous acetic acid solution: After the injection animals were placed separately in special boxes and observed for 10 minutes. The number of abdominal constrictions was registered. Analgesic activity was manifested by reduction of the number of abdominal constrictions in the 10 minutes period. Test substances were introduced 30 min before the irritating agent. The level of analgesia was expressed as analgesic index calculated as follows: A=(Cc−Ct)/Cc·100%, where A—Analgesic index Cc—number of contractions in control group, Ct—number of contractions in the test group.
# [4] = tested on: adjuvant arthritis induced by Freund's adjuvant; experiment: Adjuvant arthritis: paw volume and ankle joint; format: in vivo, Wistar rats; conditions: for Prevention %, paw volume Day 14 / Prevention %, paw volume Day 28: vs AdA
# Text: Our experiments were scheduled to test the influence of MASA on the progress of adjuvant arthritis in comparison with MD and ASA. […] Each standard cage housed 7 rats with unlimited access to drinking water and granulated standard feed. […] All efforts were made to minimize animal suffering and to reduce the number of animals used. A modified standard procedure for inducting and evaluating the progress of chronic adjuvant arthritis was used (Bellavite P, Ortolani R, Conforti A, Immunology and Homeopathy. 3. Experimental Studies on Animal Models, Advance Access Publication 2.05, 2006, 171-186). […] The solutions of test substances were prepared ex tempore. […] Test solutions were introduced to animal p.o. by catheter into the stomach. […] The effects of test substances were evaluated using the following criteria: The oedema, i.e. the volume of hind paw was measured by oncometer. The percentage of prevention (inhibition of oedema) was calculated according to formula: P(%)=(Vc−Vt)/Vc×100, where Vc—paw volume in control group Vt—paw volume in test group P—Prevention in % (inhibition of oedema).
# [5] = tested on: hyperthermia induced by intramuscular injection of pyrogenal; experiment: Antipyretic activity, pyrogenal hyperthermia (curative mode); format: in vivo, rats
# Method: The antipyretic effect of test substances in therapeutic (curative) mode was investigated on 48 rats with body mass 182-205 g, with hyperthermia induction by injecting pyrogenal in dose 100 μg (Shwarz G Y, Syubaev R D, Vedomosti NCEG lekarstvennyh sredstv MZ RF 2000; 1:44-50 (Rus). Test substances were given p.o. 2 hours after injection of pyrogenal immediately after the recording of elevated body temperature. Rectal temperature was measured by electric thermometer TERMO before the i.m. injection of pyrogenal (baseline temperature), at the peak of hyperthermia (pyrogenal control) and 30 min. after treatment with test substance, i.e., 2½ hours after the injection of pyrogenal. Ambient temperature in laboratory was kept at 20-22° C.
structure (smiles),measurement,setting,value
"O=C(O)c1cccnc1 [NA, nicotinic acid]",Maximum temperature,rat ear skin temperature; NA 15 mg/kg s.c.,32.2 ± 0.42 °C
same,maximal temperature increase from baseline,"rat ear skin temperature; NA 15 mg/kg s.c., at 10 min",2.32±0.37 °C
same,maximal temperature increase in comparison with Solvent group,"rat ear skin temperature; NA 15 mg/kg s.c., at 10 min",2.57±0.43
same,"Increase, %","rat ear skin temperature; NA 15 mg/kg s.c., effect of NA = 100",100%
same,C,"[1]; 50 mg/kg p.o., TR 250 mg/kg",327.5 ± 38.4 mg/dL
same,HDL,"[1]; 50 mg/kg p.o., TR 250 mg/kg",66.5 ± 14.6 mg/dL
same,LDL,"[1]; 50 mg/kg p.o., TR 250 mg/kg",246.3 ± 32.5 mg/dL
same,TG,"[1]; 50 mg/kg p.o., TR 250 mg/kg",591 ± 43.3 mg/dL
"C[N+](C)(C)NCCC(=O)[O-].O.O [MD, 3-(Trimethylammonioamino)propanoate dihydrate]",Latent period at 30 min after introduction of test substance,[2]; 100 mg/kg p.o.,9.5 ± 0.68***^&& s
same,Latent period at 60 min after introduction of test substance,[2]; 100 mg/kg p.o.,8.3 ± 0.53 s
same,Maximum temperature,rat ear skin temperature; 45 mg/kg s.c. alone,29.6 ± 0.31^$$$ ° C.
same,Reduction in % (oedema),carrageneen paw oedema; 100 mg/kg p.o.,34%
same,Volume of paw after injection of carrageneen,carrageneen paw oedema; 100 mg/kg p.o.,1.66 ± 0.10 mL
same,Analgesic index,[3]; 100 mg/kg p.o.,−0.4
same,Animals with positive reaction/total number,[3]; 100 mg/kg p.o. 30 min before acetic acid,8/8
same,No. of constrictions,[3]; 100 mg/kg p.o.,22.10 ± 1.47
same,Dimensions of ankle joint on Day 14,[4]; 100 mg/kg daily p.o.,7.0 ± 0.13 mm
same,Dimensions of ankle joint on Day 28,[4]; 100 mg/kg daily p.o.,7.0 ± 0.13 mm
same,Paw volume on Day 14,[4]; 100 mg/kg daily p.o.,2.60 ± 0.21 mL
same,Paw volume on Day 28,[4]; 100 mg/kg daily p.o.,1.93 ± 0.13 mL
same,"Prevention %, paw volume Day 14",[4]; 100 mg/kg daily p.o.,−7%
same,"Prevention %, paw volume Day 28",[4]; 100 mg/kg daily p.o.,13%
same,Rectal temperature at 30 minutes after treatment,[5]; 100 mg/kg p.o. 2 h after pyrogenal,37.10 ± 0.14 °C
same,C,"[1]; 150 mg/kg p.o., TR 250 mg/kg",345.6 ± 34.1 mg/dL
same,HDL,"[1]; 150 mg/kg p.o., TR 250 mg/kg",63.8 ± 9.3 mg/dL
same,LDL,"[1]; 150 mg/kg p.o., TR 250 mg/kg",273.9 ± 31.6 mg/dL
same,TG,"[1]; 150 mg/kg p.o., TR 250 mg/kg",1022 ± 80.7 mg/dL
"CC(=O)Oc1ccccc1C(=O)O [ASA, acetylsalicylic acid]",Latent period at 30 min after introduction of test substance,[2]; 50 mg/kg p.o.,5.4 ± 0.46 s
same,Latent period at 60 min after introduction of test substance,[2]; 50 mg/kg p.o.,9.7 ± 1.05 s
same,Reduction in % (oedema),carrageneen paw oedema; 50 mg/kg p.o.,70%
same,Volume of paw after injection of carrageneen,carrageneen paw oedema; 50 mg/kg p.o.,1.55 ± 0.04 mL
same,Analgesic index,[3]; 50 mg/kg p.o.,7.1
same,Animals with positive reaction/total number,[3]; 50 mg/kg p.o. 30 min before acetic acid,6/8
same,No. of constrictions,[3]; 50 mg/kg p.o.,5.75 ± 1.32***^$$$
same,Dimensions of ankle joint on Day 14,[4]; 10 mg/kg daily p.o.,7.2 ± 0.12 mm
same,Dimensions of ankle joint on Day 28,[4]; 10 mg/kg daily p.o.,6.8 ± 0.14 mm
same,Paw volume on Day 14,[4]; 10 mg/kg daily p.o.,2.53 ± 0.10 mL
same,Paw volume on Day 28,[4]; 10 mg/kg daily p.o.,2.08 ± 0.12 mL
same,"Prevention %, paw volume Day 14",[4]; 10 mg/kg daily p.o.,−7%
same,"Prevention %, paw volume Day 28",[4]; 10 mg/kg daily p.o.,7%
same,Dimensions of ankle joint on Day 14,[4]; 100 mg/kg daily p.o.,6.9 ± 0.15 mm
same,Dimensions of ankle joint on Day 28,[4]; 100 mg/kg daily p.o.,7.1 ± 0.16 mm
same,Paw volume on Day 14,[4]; 100 mg/kg daily p.o.,2.35 ± 0.14 mL
same,Paw volume on Day 28,[4]; 100 mg/kg daily p.o.,1.52 ± 0.07 mL
same,"Prevention %, paw volume Day 14",[4]; 100 mg/kg daily p.o.,3%
same,"Prevention %, paw volume Day 28",[4]; 100 mg/kg daily p.o.,32%
same,Rectal temperature at 30 minutes after treatment,[5]; 50 mg/kg p.o. 2 h after pyrogenal,36.51 ± 0.15*^$ ° C.
same,C,[1]; 45 mg/kg p.o. 1 h before and 20 h after TR 250 mg/kg,381.0 ± 30.3 mg/dL
same,HDL,"[1]; 45 mg/kg p.o., TR 250 mg/kg",62.8 ± 10.9 mg/dL
same,LDL,"[1]; 45 mg/kg p.o., TR 250 mg/kg",307.4 ± 37.8 mg/dL
same,TG,"[1]; 45 mg/kg p.o., TR 250 mg/kg",973 ± 82.7 mg/dL
same,C,"[1]; 90 mg/kg p.o., TR 250 mg/kg",288.1 ± 23.5 mg/dL
same,HDL,"[1]; 90 mg/kg p.o., TR 250 mg/kg",60.0 ± 7.4 mg/dL
same,LDL,"[1]; 90 mg/kg p.o., TR 250 mg/kg",219.1 ± 23.9 mg/dL
same,TG,"[1]; 90 mg/kg p.o., TR 250 mg/kg",791 ± 73.9 mg/dL
